Experimental data from PubChem BioAssay AID651670 (Sanford-Burnham Center for Chemical Genomics, 2012).
Activity calls are given as the source filed them.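 The calls were made as follows: active = IC50 at or below 20 µM; inactive = the rest.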

Each compound was assayed against Fatty acid synthase (Homo sapiens) (UniProt P49327) (assay: inhibition of human FAS-TE enzyme activity – biochemical, endpoint fluorescence intensity, analogs, SAR follow-up (AID 651670)). Details: recombinant FAS-TE, OMFH fluorogenic substrate.
Chain of Fatty acid synthase (Homo sapiens) (P49327 whole entry, looked up): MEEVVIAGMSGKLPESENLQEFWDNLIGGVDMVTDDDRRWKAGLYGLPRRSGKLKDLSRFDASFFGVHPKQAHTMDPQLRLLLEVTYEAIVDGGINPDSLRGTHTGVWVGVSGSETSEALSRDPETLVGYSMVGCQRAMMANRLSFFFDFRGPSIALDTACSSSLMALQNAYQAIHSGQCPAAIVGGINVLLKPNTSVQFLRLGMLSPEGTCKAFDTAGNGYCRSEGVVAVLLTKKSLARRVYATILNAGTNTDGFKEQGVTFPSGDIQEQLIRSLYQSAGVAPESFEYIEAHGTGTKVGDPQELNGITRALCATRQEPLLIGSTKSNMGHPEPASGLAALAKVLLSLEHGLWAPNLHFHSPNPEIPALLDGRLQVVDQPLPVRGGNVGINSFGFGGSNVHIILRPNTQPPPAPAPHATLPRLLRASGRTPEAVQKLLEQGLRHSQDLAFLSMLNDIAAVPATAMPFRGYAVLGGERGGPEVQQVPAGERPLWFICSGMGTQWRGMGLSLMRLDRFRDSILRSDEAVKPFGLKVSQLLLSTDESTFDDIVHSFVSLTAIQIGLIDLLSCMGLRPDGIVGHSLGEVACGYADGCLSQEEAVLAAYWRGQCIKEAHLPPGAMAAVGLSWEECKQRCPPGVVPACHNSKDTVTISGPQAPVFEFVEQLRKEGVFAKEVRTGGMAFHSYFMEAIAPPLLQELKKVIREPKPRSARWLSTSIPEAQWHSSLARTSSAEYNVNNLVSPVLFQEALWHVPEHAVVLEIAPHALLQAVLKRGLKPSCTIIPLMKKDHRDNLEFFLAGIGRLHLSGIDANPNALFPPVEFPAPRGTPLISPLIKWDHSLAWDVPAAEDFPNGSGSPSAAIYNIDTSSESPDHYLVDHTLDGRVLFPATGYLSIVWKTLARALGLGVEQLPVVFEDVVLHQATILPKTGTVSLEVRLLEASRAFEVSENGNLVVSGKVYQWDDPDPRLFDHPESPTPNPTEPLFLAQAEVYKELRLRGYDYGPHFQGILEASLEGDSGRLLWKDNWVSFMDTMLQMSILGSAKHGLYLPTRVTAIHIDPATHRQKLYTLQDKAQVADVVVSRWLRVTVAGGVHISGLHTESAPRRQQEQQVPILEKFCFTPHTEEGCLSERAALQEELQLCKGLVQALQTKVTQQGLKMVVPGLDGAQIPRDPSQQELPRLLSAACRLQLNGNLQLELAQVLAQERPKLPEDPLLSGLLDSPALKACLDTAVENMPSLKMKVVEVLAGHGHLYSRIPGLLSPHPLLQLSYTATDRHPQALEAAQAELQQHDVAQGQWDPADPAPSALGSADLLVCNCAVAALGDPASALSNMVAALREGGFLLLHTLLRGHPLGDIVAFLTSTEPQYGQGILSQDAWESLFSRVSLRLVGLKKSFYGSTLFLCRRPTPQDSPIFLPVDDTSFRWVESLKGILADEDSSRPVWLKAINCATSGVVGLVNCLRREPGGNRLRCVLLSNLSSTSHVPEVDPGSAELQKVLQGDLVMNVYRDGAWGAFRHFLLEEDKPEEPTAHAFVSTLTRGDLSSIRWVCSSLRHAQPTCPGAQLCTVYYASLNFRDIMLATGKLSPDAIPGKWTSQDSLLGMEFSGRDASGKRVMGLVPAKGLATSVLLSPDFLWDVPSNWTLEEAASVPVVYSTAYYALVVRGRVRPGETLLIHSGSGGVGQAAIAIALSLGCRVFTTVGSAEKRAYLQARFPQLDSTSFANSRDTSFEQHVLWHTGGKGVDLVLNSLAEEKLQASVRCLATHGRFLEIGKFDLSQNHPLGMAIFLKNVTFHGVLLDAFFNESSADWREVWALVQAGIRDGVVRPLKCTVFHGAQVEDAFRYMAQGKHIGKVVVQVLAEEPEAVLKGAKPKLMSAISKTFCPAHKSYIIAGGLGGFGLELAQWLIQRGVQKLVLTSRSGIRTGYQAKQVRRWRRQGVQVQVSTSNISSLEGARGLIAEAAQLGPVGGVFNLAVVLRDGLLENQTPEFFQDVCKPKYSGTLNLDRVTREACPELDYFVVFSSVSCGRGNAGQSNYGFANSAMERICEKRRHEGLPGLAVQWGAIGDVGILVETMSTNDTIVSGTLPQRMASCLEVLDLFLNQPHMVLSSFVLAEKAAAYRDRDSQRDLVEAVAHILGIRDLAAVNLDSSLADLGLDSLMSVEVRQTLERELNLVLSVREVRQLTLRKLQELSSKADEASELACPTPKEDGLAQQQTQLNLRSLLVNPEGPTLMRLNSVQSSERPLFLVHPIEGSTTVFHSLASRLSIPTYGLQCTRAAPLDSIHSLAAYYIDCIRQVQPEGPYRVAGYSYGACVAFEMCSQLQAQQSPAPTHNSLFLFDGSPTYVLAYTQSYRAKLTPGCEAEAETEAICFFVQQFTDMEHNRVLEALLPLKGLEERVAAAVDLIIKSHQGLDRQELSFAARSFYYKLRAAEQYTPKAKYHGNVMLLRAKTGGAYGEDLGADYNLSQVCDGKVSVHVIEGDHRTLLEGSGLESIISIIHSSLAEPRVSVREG

SMILES	IC50
Cc1ccccc1NC(=O)CSc1nnc(-c2ccc(Cl)cc2)n1C	> 80 µM (inactive)
Cn1c(Cc2ccccc2)nnc1SCC(=O)Nc1ncc(C(F)(F)F)cc1Cl	inactive
CCn1c(SCC(=O)Nc2ncc(C(F)(F)F)cc2Cl)nnc1-c1ccncc1	inactive
O=S(=O)(c1ccc(-c2csc(N3CCCC3)n2)cc1)N1CCOCC1	0.948 µM
Cn1c(SCC(=O)Nc2cccc(Cl)c2)nnc1-c1ccc(Cl)cc1	> 80 µM (inactive)
O=C(Nc1nc(-c2ccc(S(=O)(=O)N3CCOCC3)cc2)cs1)c1ccco1	inactive
Cn1c(SCC(=O)Nc2ccccc2)nnc1-c1ccc(Cl)cc1	> 80 µM (inactive)
CC(=O)Nc1nc(-c2ccc(S(=O)(=O)N3CCOCC3)cc2)cs1	15.3 µM
O=C(Nc1nc(-c2ccc(S(=O)(=O)N3CCOCC3)cc2)cs1)c1cccs1	inactive
CCCn1c(SCC(=O)Nc2ncc(C(F)(F)F)cc2Cl)nnc1-c1ccncc1	inactive
CN(Cc1cccc(F)c1)C(=O)Cc1ccc(S(=O)(=O)N2CCOCC2)s1	> 80 µM (inactive)
COc1ccc(CN(C)C(=O)Cc2ccc(S(=O)(=O)N3CCOCC3)s2)cc1OC	> 80 µM (inactive)
O=S(=O)(c1ccc(-c2csc(Cc3ccccc3)n2)cc1)N1CCOCC1	0.664 µM
COc1ccc(-c2nnc(SCC(=O)Nc3ncc(C(F)(F)F)cc3Cl)n2C)cc1	1.96 µM
CCCCn1c(SCC(=O)Nc2ncc(C(F)(F)F)cc2Cl)nnc1-c1ccc(OC)cc1	0.67 µM
Cc1nnc(SCC(=O)Nc2ncc(C(F)(F)F)cc2Cl)n1-c1ccccc1	> 80 µM (inactive)
Cn1c(SCC(=O)Nc2ncc(C(F)(F)F)cc2Cl)nnc1-c1ccc(F)cc1	8.27 µM
CCc1ccc(CN(C)C(=O)Cc2ccc(S(=O)(=O)N3CCCC3)s2)cc1	12.9 µM
Cc1ccc(NC(=O)Cc2nc(-c3ccc(S(=O)(=O)N4CCOCC4)cc3)cs2)cc1	> 80 µM (inactive)
